Measurements: paper PMC5218480 (PLoS ONE, 2017)

Test system: MV-4-11 cells
Assay: Gene expression microarray analysis (Affymetrix PrimeView) and GSEA
Format: cell-based, human
Design: RFU PODN (11730768_x_at) / Fold change /veh PODN (11730768_x_at) / RFU LINC00158 (11744669_a_at) / Fold change /veh LINC00158 (11744669_a_at) / RFU DUSP10 (11751237_a_at) / Fold change /veh DUSP10 (11751237_a_at) / RFU ID3 (11757404_x_at) / Fold change /veh ID3 (11757404_x_at) / RFU PLEKHG5 (11737974_s_at) / Fold change /veh PLEKHG5 (11737974_s_at) / RFU LRRC4B (11730491_at) / Fold change /veh LRRC4B (11730491_at) / RFU GIMAP4 (11747438_a_at) / Fold change /veh GIMAP4 (11747438_a_at) / RFU KRT8 (11758183_x_at) / Fold change /veh KRT8 (11758183_x_at) / RFU CNN1 (11734310_a_at) / Fold change /veh CNN1 (11734310_a_at) / RFU VPS37D (11726825_at) / Fold change /veh VPS37D (11726825_at) / RFU C10orf10 (11716522_x_at) / Fold change /veh C10orf10 (11716522_x_at) / RFU KIR2DL2 /// KIR2DL4 /// KIR2DL5A /// KIR2DL5B /// KIR2DS1 /// KIR2DS2 /// KIR2DS3 /// KIR2DS4 /// KIR3DL3 /// KIR3DL3 /// KIR3DS1 (11738374_at) / Fold change /veh KIR2DL2 /// KIR2DL4 /// KIR2DL5A /// KIR2DL5B /// KIR2DS1 /// KIR2DS2 /// KIR2DS3 /// KIR2DS4 /// KIR3DL3 /// KIR3DL3 /// KIR3DS1 (11738374_at) / RFU C1QL1 (11718748_at) / Fold change /veh C1QL1 (11718748_at) / RFU TMPRSS4 (11747572_a_at) / Fold change /veh TMPRSS4 (11747572_a_at) / RFU HAMP (11756126_x_at) / Fold change /veh HAMP (11756126_x_at) / RFU RNFT2 (11725882_a_at) / Fold change /veh RNFT2 (11725882_a_at) / RFU NR4A2 (11747474_a_at) / Fold change /veh NR4A2 (11747474_a_at) / RFU ABCC12 (11746883_a_at) / Fold change /veh ABCC12 (11746883_a_at) / RFU TMEM136 (11760407_x_at) / Fold change /veh TMEM136 (11760407_x_at) / RFU CLDN22 /// WWC2 (11732394_at) / Fold change /veh CLDN22 /// WWC2 (11732394_at) / RFU HLA-DPB1 (11760878_x_at) / Fold change /veh HLA-DPB1 (11760878_x_at) / RFU SPINT1 (11716480_a_at) / Fold change /veh SPINT1 (11716480_a_at) / RFU GAP43 (11754022_s_at) / Fold change /veh GAP43 (11754022_s_at) / RFU A4GNT (11735810_at) / Fold change /veh A4GNT (11735810_at) / RFU PRB3 (11715151_x_at) / Fold change /veh PRB3 (11715151_x_at) / RFU TUBB4B (11761932_at) / Fold change /veh TUBB4B (11761932_at) / RFU CAPN14 (11732068_a_at) / Fold change /veh CAPN14 (11732068_a_at) / RFU TMCC2 (11721928_a_at) / Fold change /veh TMCC2 (11721928_a_at) / RFU IRGQ (11745062_a_at) / Fold change /veh IRGQ (11745062_a_at) / RFU FAM174B (11720279_a_at) / Fold change /veh FAM174B (11720279_a_at) / RFU TMPRSS4 (11748680_a_at) / Fold change /veh TMPRSS4 (11748680_a_at) / RFU FAM212B (11763350_a_at) / Fold change /veh FAM212B (11763350_a_at) / RFU PLEKHG5 (11743358_a_at) / Fold change /veh PLEKHG5 (11743358_a_at) / RFU ZSCAN30 (11745921_a_at) / Fold change /veh ZSCAN30 (11745921_a_at) / RFU CMKLR1 (11741424_a_at) / Fold change /veh CMKLR1 (11741424_a_at) / RFU LOC101060620 /// MAPK8IP1 (11723275_at) / Fold change /veh LOC101060620 /// MAPK8IP1 (11723275_at) / RFU SPTSSB (11747773_x_at) / Fold change /veh SPTSSB (11747773_x_at) / RFU PRSS12 (11739890_at) / Fold change /veh PRSS12 (11739890_at) / RFU BIN1 (11741810_x_at) / Fold change /veh BIN1 (11741810_x_at) / RFU WNT11 (11732464_a_at) / Fold change /veh WNT11 (11732464_a_at) / RFU C10orf10 (11716521_a_at) / Fold change /veh C10orf10 (11716521_a_at) / RFU C5orf56 (11738089_at) / Fold change /veh C5orf56 (11738089_at) / RFU CYB561 (11721691_x_at) / Fold change /veh CYB561 (11721691_x_at) / RFU ANKRD19P (11752326_a_at) / Fold change /veh ANKRD19P (11752326_a_at) / RFU OR2T12 /// OR2T33 /// OR2T8 (11738714_s_at) / Fold change /veh OR2T12 /// OR2T33 /// OR2T8 (11738714_s_at) / RFU VCAN (11748164_a_at) / Fold change /veh VCAN (11748164_a_at) / RFU JSRP1 (11732532_at) / Fold change /veh JSRP1 (11732532_at) / RFU KRTAP10-11 (11738290_x_at) / Fold change /veh KRTAP10-11 (11738290_x_at) / RFU MYO3A (11730013_a_at) / Fold change /veh MYO3A (11730013_a_at) / RFU EBF3 (11725865_a_at) / Fold change /veh EBF3 (11725865_a_at) / RFU CAMK2N1 (11719241_x_at) / Fold change /veh CAMK2N1 (11719241_x_at) / RFU C5orf56 (11738088_a_at) / Fold change /veh C5orf56 (11738088_a_at) / RFU OLFML3 (11715873_a_at) / Fold change /veh OLFML3 (11715873_a_at) / RFU LOC100653217 /// NTM (11731650_a_at) / Fold change /veh LOC100653217 /// NTM (11731650_a_at) / RFU MAPK11 (11762145_a_at) / Fold change /veh MAPK11 (11762145_a_at) / RFU FIZ1 (11724087_x_at) / Fold change /veh FIZ1 (11724087_x_at) / RFU OASL (11726364_x_at) / Fold change /veh OASL (11726364_x_at) / RFU SOX15 (11748057_x_at) / Fold change /veh SOX15 (11748057_x_at) / RFU CD79A (11719716_a_at) / Fold change /veh CD79A (11719716_a_at) / RFU HIST1H1D (11736915_at) / Fold change /veh HIST1H1D (11736915_at) / RFU CASKIN2 (11723855_a_at) / Fold change /veh CASKIN2 (11723855_a_at) / RFU LOC730098 (11760151_x_at) / Fold change /veh LOC730098 (11760151_x_at) / RFU OR4N2 (11742367_at) / Fold change /veh OR4N2 (11742367_at) / RFU PRRT2 (11749266_a_at) / Fold change /veh PRRT2 (11749266_a_at) / RFU SNX32 (11753110_a_at) / Fold change /veh SNX32 (11753110_a_at) / RFU CDHR5 (11726645_a_at) / Fold change /veh CDHR5 (11726645_a_at) / RFU RCAN1 (11760418_a_at) / Fold change /veh RCAN1 (11760418_a_at) / RFU FAM167A (11723789_a_at) / Fold change /veh FAM167A (11723789_a_at) / RFU FAM26E (11764081_at) / Fold change /veh FAM26E (11764081_at) / RFU ISYNA1 (11749810_s_at) / Fold change /veh ISYNA1 (11749810_s_at) / RFU ACY1 (11761880_at) / Fold change /veh ACY1 (11761880_at) / RFU 11764098_at / Fold change /veh 11764098_at / RFU SAMD14 (11745864_x_at) / Fold change /veh SAMD14 (11745864_x_at) / RFU NPB (11741838_a_at) / Fold change /veh NPB (11741838_a_at) / RFU TMPRSS6 (11731388_a_at) / Fold change /veh TMPRSS6 (11731388_a_at) / RFU KRTAP10-2 (11738614_at) / Fold change /veh KRTAP10-2 (11738614_at) / RFU ARHGAP8 /// PRR5-ARHGAP8 (11727945_x_at) / Fold change /veh ARHGAP8 /// PRR5-ARHGAP8 (11727945_x_at) / RFU KRTAP5-7 /// NADSYN1 (11734609_at) / Fold change /veh KRTAP5-7 /// NADSYN1 (11734609_at) / RFU RASL12 (11751679_a_at) / Fold change /veh RASL12 (11751679_a_at) / RFU CDKN2B (11736163_a_at) / Fold change /veh CDKN2B (11736163_a_at) / RFU PRF1 (11729649_at) / Fold change /veh PRF1 (11729649_at) / RFU, ZNF638 /// ZNF638-IT1 / Fold change vs veh, ZNF638 /// ZNF638-IT1 / RFU, PANK3 / Fold change vs veh, PANK3 / RFU, SH3YL1 / Fold change vs veh, SH3YL1 / RFU, ZEB2 / Fold change vs veh, ZEB2 / RFU, NRIP1 / Fold change vs veh, NRIP1 / RFU, PTTG1IP / Fold change vs veh, PTTG1IP / RFU, CAPN2 / Fold change vs veh, CAPN2 / RFU, MED14 / Fold change vs veh, MED14 / RFU, SNORA58 / Fold change vs veh, SNORA58 / RFU, C1orf63 / Fold change vs veh, C1orf63 / RFU, LRRFIP1 / Fold change vs veh, LRRFIP1 / RFU, NDUFAF7 / Fold change vs veh, NDUFAF7 / RFU, SLC12A2 / Fold change vs veh, SLC12A2 / RFU, IBTK / Fold change vs veh, IBTK / RFU, ESF1 / Fold change vs veh, ESF1 / Fold change vs veh, TMEM50B / RFU, TAOK1 / Fold change vs veh, TAOK1 / RFU, ACBD3 / Fold change vs veh, ACBD3 / RFU, TMA16 / Fold change vs veh, TMA16 / RFU, RWDD3 / Fold change vs veh, RWDD3 / RFU, BCAT1 / Fold change vs veh, BCAT1 / RFU, EDEM3 / Fold change vs veh, EDEM3 / RFU, TMEM33 / Fold change vs veh, TMEM33 / RFU, WDR75 / Fold change vs veh, WDR75 / RFU, AHCTF1 / Fold change vs veh, AHCTF1 / RFU, TFRC / Fold change vs veh, TFRC / RFU, ZDHHC17 / Fold change vs veh, ZDHHC17 / RFU, NOM1 / Fold change vs veh, NOM1 / RFU, ARL8B / Fold change vs veh, ARL8B / RFU, ZBTB11 / Fold change vs veh, ZBTB11 / RFU, TAMM41 / Fold change vs veh, TAMM41 / RFU, KIAA1704 /// LOC100996395 / Fold change vs veh, KIAA1704 /// LOC100996395 / RFU, ING1 / Fold change vs veh, ING1 / RFU, TRMT61B / Fold change vs veh, TRMT61B / RFU, FUBP3 / Fold change vs veh, FUBP3 / RFU, TP53 / Fold change vs veh, TP53 / RFU, TNKS2 / Fold change vs veh, TNKS2 / RFU, ZFP14 / Fold change vs veh, ZFP14 / RFU, ACTR2 / Fold change vs veh, ACTR2 / RFU, PPP3R1 / Fold change vs veh, PPP3R1 / RFU, PIK3R1 / Fold change vs veh, PIK3R1 / RFU, HNRNPA1 / Fold change vs veh, HNRNPA1 / RFU, RNF170 / Fold change vs veh, RNF170 / RFU, ZNF28 / Fold change vs veh, ZNF28 / RFU, RNGTT / Fold change vs veh, RNGTT / RFU, OGT / Fold change vs veh, OGT / RFU, BRD1 / Fold change vs veh, BRD1 / RFU, MARS / Fold change vs veh, MARS / RFU, ZNF655 / Fold change vs veh, ZNF655 / RFU, FAHD1 / Fold change vs veh, FAHD1 / RFU, BDP1 / Fold change vs veh, BDP1 / RFU, LRRCC1 / Fold change vs veh, LRRCC1 / RFU, ARID1A / Fold change vs veh, ARID1A / RFU, ZNF146 / Fold change vs veh, ZNF146 / RFU, ZNF330 / Fold change vs veh, ZNF330 / RFU, GPN3 / Fold change vs veh, GPN3 / RFU, C9orf123 / Fold change vs veh, C9orf123 / RFU, N4BP2L2 / Fold change vs veh, N4BP2L2 / RFU, ARFIP1 / Fold change vs veh, ARFIP1 / RFU, FAM179B / Fold change vs veh, FAM179B / RFU, BCL10 / Fold change vs veh, BCL10 / RFU, UHRF1BP1L / Fold change vs veh, UHRF1BP1L / RFU, BET1 / Fold change vs veh, BET1 / RFU, CNOT2 / Fold change vs veh, CNOT2 / RFU, ZNF268 / Fold change vs veh, ZNF268 / Fold change vs veh, ZNF507 / RFU, DGCR2 / Fold change vs veh, DGCR2 / RFU, WDSUB1 / Fold change vs veh, WDSUB1 / Fold change vs veh, HSP90B1 /// MIR3652 / RFU, ADSS / Fold change vs veh, ADSS / RFU, GK / Fold change vs veh, GK / RFU, ZNF148 / Fold change vs veh, ZNF148 / RFU, TAF9 / Fold change vs veh, TAF9 / RFU, SLC1A5 / Fold change vs veh, SLC1A5 / RFU, SLMO2 / Fold change vs veh, SLMO2 / RFU, ABCC4 / Fold change vs veh, ABCC4 / RFU, LOC101060439 /// RAP1B / Fold change vs veh, LOC101060439 /// RAP1B / RFU, RFX7 / Fold change vs veh, RFX7 / RFU, GTPBP10 / Fold change vs veh, GTPBP10 / RFU, CNEP1R1 / Fold change vs veh, CNEP1R1 / RFU, BIVM-ERCC5 /// ERCC5 / Fold change vs veh, BIVM-ERCC5 /// ERCC5 / RFU, ILF3 / Fold change vs veh, ILF3 / RFU 11762660_at / Fold change /veh 11762660_at / RFU VCAN (11757783_s_at) / Fold change /veh VCAN (11757783_s_at) / RFU DDX43 (11728927_at) / Fold change /veh DDX43 (11728927_at) / RFU KRT8 (11758188_x_at) / Fold change /veh KRT8 (11758188_x_at) / RFU NKD1 (11759106_at) / Fold change /veh NKD1 (11759106_at) / RFU SRD5A1 (11742802_a_at) / Fold change /veh SRD5A1 (11742802_a_at) / RFU TPSAB1 /// TPSB2 (11721975_s_at) / Fold change /veh TPSAB1 /// TPSB2 (11721975_s_at) / RFU GSTM3 (11746129_a_at) / Fold change /veh GSTM3 (11746129_a_at) / RFU IL23R (11737362_x_at) / Fold change /veh IL23R (11737362_x_at) / RFU TMEM51 (11727254_a_at) / Fold change /veh TMEM51 (11727254_a_at) / RFU PIWIL2 (11732686_x_at) / Fold change /veh PIWIL2 (11732686_x_at) / RFU ORM1 (11744905_x_at) / Fold change /veh ORM1 (11744905_x_at) / RFU CCDC152 (11743942_at) / Fold change /veh CCDC152 (11743942_at) / RFU ECM1 (11717891_a_at) / Fold change /veh ECM1 (11717891_a_at) / RFU IL23R (11748794_a_at) / Fold change /veh IL23R (11748794_a_at) / RFU TNFAIP8L3 (11732012_x_at) / Fold change /veh TNFAIP8L3 (11732012_x_at) / RFU MBOAT4 (11741988_at) / Fold change /veh MBOAT4 (11741988_at) / RFU 11764193_at / Fold change /veh 11764193_at / RFU TMEM53 (11763286_at) / Fold change /veh TMEM53 (11763286_at) / RFU MAGEB2 (11727129_at) / Fold change /veh MAGEB2 (11727129_at) / RFU TMEM200A (11744735_a_at) / Fold change /veh TMEM200A (11744735_a_at) / RFU CCDC152 (11751479_a_at) / Fold change /veh CCDC152 (11751479_a_at) / RFU FAM211A (11726209_a_at) / Fold change /veh FAM211A (11726209_a_at) / RFU RGS16 (11746705_a_at) / Fold change /veh RGS16 (11746705_a_at) / RFU VCAN (11755009_s_at) / Fold change /veh VCAN (11755009_s_at) / RFU RHOB (11743442_s_at) / Fold change /veh RHOB (11743442_s_at) / RFU RGS16 (11720943_a_at) / Fold change /veh RGS16 (11720943_a_at) / RFU RGS16 (11720944_at) / Fold change /veh RGS16 (11720944_at) / RFU, VPS4B / Fold change vs veh, VPS4B / RFU, CREB1 / Fold change vs veh, CREB1 / RFU, DNAJC13 / Fold change vs veh, DNAJC13 / RFU, GNAQ / Fold change vs veh, GNAQ / RFU, CDK5R1 / Fold change vs veh, CDK5R1 / RFU, ZRANB3 / Fold change vs veh, ZRANB3 / RFU, CUL4A / Fold change vs veh, CUL4A / RFU, CCNY / Fold change vs veh, CCNY / RFU, UFL1 / Fold change vs veh, UFL1 / RFU, COG3 / Fold change vs veh, COG3 / RFU, DIAPH2 / Fold change vs veh, DIAPH2 / RFU, SKA2 / Fold change vs veh, SKA2 / RFU, AFF3 / Fold change vs veh, AFF3 / RFU, LMF1 / Fold change vs veh, LMF1 / RFU, IPO11 / Fold change vs veh, IPO11 / RFU, DFFB / Fold change vs veh, DFFB / RFU, FOXP1 / Fold change vs veh, FOXP1 / RFU, CARD8 / Fold change vs veh, CARD8 / RFU, STRN3 / Fold change vs veh, STRN3 / RFU, ADK / Fold change vs veh, ADK / RFU, RASSF2 / Fold change vs veh, RASSF2 / RFU, WIPF1 / Fold change vs veh, WIPF1 / RFU, LARP1B / Fold change vs veh, LARP1B / RFU, RASA1 / Fold change vs veh, RASA1 / RFU, RB1 / Fold change vs veh, RB1 / RFU, PPFIA1 / Fold change vs veh, PPFIA1 / RFU, MAT2A / Fold change vs veh, MAT2A / RFU, CCT5 / Fold change vs veh, CCT5 / RFU, WDR92 / Fold change vs veh, WDR92 / RFU, CUX1 / Fold change vs veh, CUX1 / RFU, TTC7A / Fold change vs veh, TTC7A / RFU, TMEM135 / Fold change vs veh, TMEM135 / RFU, DEPTOR / Fold change vs veh, DEPTOR / RFU, CPM / Fold change vs veh, CPM / RFU, DNAJB6 / Fold change vs veh, DNAJB6 / RFU, CACNA2D3 / Fold change vs veh, CACNA2D3 / RFU, DTX4 / Fold change vs veh, DTX4 / RFU, TFCP2 / Fold change vs veh, TFCP2 / RFU, GMCL1 /// GMCL1P1 / Fold change vs veh, GMCL1 /// GMCL1P1 / RFU, AEBP2 / Fold change vs veh, AEBP2 / RFU, SNHG1 /// SNORD22 /// SNORD25 /// SNORD26 /// SNORD27 /// SNORD28 /// SNORD29 /// SNORD31 / Fold change vs veh, SNHG1 /// SNORD22 /// SNORD25 /// SNORD26 /// SNORD27 /// SNORD28 /// SNORD29 /// SNORD31 / Fold change (Aza/veh), C12orf56 (ProbeSet 11735607_a_at) / Fold change (ACY-1035/veh), C12orf56 (ProbeSet 11735607_a_at) / Fold change (Aza/veh), FGFR1OP (ProbeSet 11751329_s_at) / Fold change (ACY-1035/veh), FGFR1OP (ProbeSet 11751329_s_at) / Fold change (Aza/veh), VPS36 (ProbeSet 11739960_a_at) / Fold change (ACY-1035/veh), VPS36 (ProbeSet 11739960_a_at) / RFU SYPL1 (11715823_x_at) / Fold change /veh SYPL1 (11715823_x_at) / RFU IGFBP7 (11715501_s_at) / Fold change /veh IGFBP7 (11715501_s_at) / RFU REEP3 (11722064_at) / Fold change /veh REEP3 (11722064_at) / RFU IGLL1 (11728026_x_at) / Fold change /veh IGLL1 (11728026_x_at): dose or concentration left out as unconfirmed
Settings: ProbeSet 11730252_s_at; LIST B

Nc1ncn([C@@H]2O[C@H](CO)[C@@H](O)[C@H]2O)c(=O)n1 [azacitidine]
Fold change vs veh, AHCTF1: 0.94
